Source: PubChem BioAssay (NCI)
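Test compounds were applied to cells in 96-well plates for 48 hours at 5 doses. TGI denotes the concentration required for complete inhibition of growth.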

Columns and labels:
Assay in all cases: NCI anticancer screen, dose series, 48 h
786-0 renal = test system: 786-0 renal
A498 renal = test system: A498 renal
A549 NSCLC = test system: A549 NSCLC
ACHN renal = test system: ACHN renal
BT-549 breast = test system: BT-549 breast
CAKI-1 renal = test system: CAKI-1 renal
CCRF-CEM leukemia = test system: CCRF-CEM leukemia
COLO 205 colon = test system: COLO 205 colon
DU-145 prostate = test system: DU-145 prostate
EKVX NSCLC = test system: EKVX NSCLC
HCT-116 colon = test system: HCT-116 colon
HCT-15 colon = test system: HCT-15 colon
HL-60(TB) leukemia = test system: HL-60(TB) leukemia
HOP-62 NSCLC = test system: HOP-62 NSCLC
HOP-92 NSCLC = test system: HOP-92 NSCLC
HS 578T breast = test system: HS 578T breast
IGROV1 ovarian = test system: IGROV1 ovarian
K-562 leukemia = test system: K-562 leukemia
KM12 colon = test system: KM12 colon
LOX IMVI melanoma = test system: LOX IMVI melanoma
MCF7 breast = test system: MCF7 breast
MDA-MB-231 breast = test system: MDA-MB-231 breast
MDA-MB-435 = test system: MDA-MB-435
MOLT-4 leukemia = test system: MOLT-4 leukemia
NCI-H460 lung = test system: NCI-H460 lung
NCI-H522 lung = test system: NCI-H522 lung
OVCAR-3 ovarian = test system: OVCAR-3 ovarian
OVCAR-4 ovarian = test system: OVCAR-4 ovarian
OVCAR-5 ovarian = test system: OVCAR-5 ovarian
PC-3 prostate = test system: PC-3 prostate
RPMI-8226 leukemia = test system: RPMI-8226 leukemia
RXF 393 renal = test system: RXF 393 renal
SF-295 CNS = test system: SF-295 CNS
SF-539 CNS = test system: SF-539 CNS
SK-MEL-2 melanoma = test system: SK-MEL-2 melanoma
SK-MEL-28 melanoma = test system: SK-MEL-28 melanoma
SK-MEL-5 melanoma = test system: SK-MEL-5 melanoma
SK-OV-3 ovarian = test system: SK-OV-3 ovarian
SN12C renal = test system: SN12C renal
SNB-19 CNS = test system: SNB-19 CNS
SNB-75 CNS = test system: SNB-75 CNS
SW-620 colon = test system: SW-620 colon
T-47D breast = test system: T-47D breast
TK-10 renal = test system: TK-10 renal
U251 CNS = test system: U251 CNS
UACC-257 melanoma = test system: UACC-257 melanoma
UACC-62 melanoma = test system: UACC-62 melanoma
UO-31 renal = test system: UO-31 renal

**Q.** Which TGI (786-0 renal) does the source give for `CCOC(=O)c1cccn1S(=O)(=O)c1cc(Cl)ccc1NC(=O)CC` here?
**A.** > 100 µM

**Q.** And the TGI (A498 renal)?
**A.** > 100 µM

**Q.** What about the TGI (A549 NSCLC) of the same compound?
**A.** > 100 µM

**Q.** What about the TGI (ACHN renal) of the same compound?
**A.** > 100 µM

**Q.** And the TGI (BT-549 breast)?
**A.** > 100 µM

**Q.** What about the TGI (CAKI-1 renal) of the same compound?
**A.** > 100 µM

**Q.** And the TGI (CCRF-CEM leukemia)?
**A.** > 100 µM

**Q.** What about the TGI (COLO 205 colon) of the same compound?
**A.** 65.4 µM

**Q.** And the TGI (DU-145 prostate)?
**A.** > 100 µM

**Q.** What about the TGI (EKVX NSCLC) of the same compound?
**A.** > 100 µM

**Q.** And the TGI (HCT-116 colon)?
**A.** > 100 µM

**Q.** And the TGI (HCT-15 colon)?
**A.** > 100 µM

**Q.** What about the TGI (HL-60(TB) leukemia) of the same compound?
**A.** > 100 µM

**Q.** And the TGI (HOP-62 NSCLC)?
**A.** > 100 µM

**Q.** And the TGI (HOP-92 NSCLC)?
**A.** > 100 µM

**Q.** What about the TGI (HS 578T breast) of the same compound?
**A.** > 100 µM

**Q.** And the TGI (IGROV1 ovarian)?
**A.** > 100 µM

**Q.** And the TGI (K-562 leukemia)?
**A.** > 100 µM

**Q.** What about the TGI (KM12 colon) of the same compound?
**A.** > 100 µM

**Q.** And the TGI (LOX IMVI melanoma)?
**A.** > 100 µM

**Q.** And the TGI (MCF7 breast)?
**A.** > 100 µM

**Q.** What about the TGI (MDA-MB-231 breast) of the same compound?
**A.** > 100 µM

**Q.** What about the TGI (MDA-MB-435) of the same compound?
**A.** > 100 µM

**Q.** And the TGI (MOLT-4 leukemia)?
**A.** > 100 µM

**Q.** What about the TGI (NCI-H460 lung) of the same compound?
**A.** > 100 µM

**Q.** What about the TGI (NCI-H522 lung) of the same compound?
**A.** 63.1 µM

**Q.** What about the TGI (OVCAR-3 ovarian) of the same compound?
**A.** > 100 µM

**Q.** What about the TGI (OVCAR-4 ovarian) of the same compound?
**A.** > 100 µM

**Q.** What about the TGI (OVCAR-5 ovarian) of the same compound?
**A.** > 100 µM

**Q.** What about the TGI (PC-3 prostate) of the same compound?
**A.** > 100 µM

**Q.** And the TGI (RPMI-8226 leukemia)?
**A.** > 100 µM

**Q.** What about the TGI (RXF 393 renal) of the same compound?
**A.** > 100 µM

**Q.** What about the TGI (SF-295 CNS) of the same compound?
**A.** > 100 µM

**Q.** And the TGI (SF-539 CNS)?
**A.** > 100 µM

**Q.** And the TGI (SK-MEL-2 melanoma)?
**A.** > 100 µM

**Q.** What about the TGI (SK-MEL-28 melanoma) of the same compound?
**A.** > 100 µM

**Q.** And the TGI (SK-MEL-5 melanoma)?
**A.** > 100 µM

**Q.** And the TGI (SK-OV-3 ovarian)?
**A.** > 100 µM

**Q.** What about the TGI (SN12C renal) of the same compound?
**A.** > 100 µM

**Q.** What about the TGI (SNB-19 CNS) of the same compound?
**A.** > 100 µM

**Q.** And the TGI (SNB-75 CNS)?
**A.** > 100 µM

**Q.** And the TGI (SW-620 colon)?
**A.** > 100 µM

**Q.** What about the TGI (T-47D breast) of the same compound?
**A.** > 100 µM

**Q.** And the TGI (TK-10 renal)?
**A.** > 100 µM

**Q.** And the TGI (U251 CNS)?
**A.** > 100 µM

**Q.** And the TGI (UACC-257 melanoma)?
**A.** > 100 µM

**Q.** What about the TGI (UACC-62 melanoma) of the same compound?
**A.** > 100 µM

**Q.** And the TGI (UO-31 renal)?
**A.** 54 µM
